Experimental data from PMC11264232, “Are the metal identity and stoichiometry of metal complexes important for colchicine site binding and inhibition of tubulin polymerization?” (Dalton Transactions (Cambridge, England : 2003), 2024).

Assays:
[1] = system: microtubule system in A549 cancer cells; test: α-Tubulin immunostaining; format: cell-based, human; conditions: 80 μM, 24 h
Description: Since we found remarkable antiproliferative activity exerted by some of the tested compounds by the BrdU assay, and it was also shown that some of the compounds might interfere with tubulin polymerization in cell-free tests, we examined whether the metal complexes or the proligands influence the structure of the microtubule system in A549 cancer cells. For this purpose, the cells were treated with either DMSO, HL^1–HL^3, or with complexes 1, 2, 4 and 5, or were left untreated, followed by α-tubulin immunostaining (Fig. 11). In the untreated samples normal cell morphology and filamentous microtubule structure was observed.
The structure of microtubules was visualized by α-tubulin immunostaining on A549 cells. For this, 5 × 10^4 cells per well were seeded onto coverslips in 24-well plates. […] Then samples were fixed with 4% formaldehyde (Molar Chemicals, Halásztelek, Hungary), permeabilized with 0.3% Triton-X-100 (Calbiochem, Merck Millipore, Darmstadt, Germany) and were blocked using 5% BSA (Sigma-Aldrich, St Louis, Missouri, USA) diluted in PBS. Then the cells were incubated with anti-α-tubulin antibody (Thermo Fisher Scientific, monoclonal mouse antibody, DM1A, Waltham, Massachusetts, USA) in a 1 : 300 dilution in 1% BSA followed by Alexa 488 fluorophore-conjugated goat anti-mouse secondary antibody (Abcam, Cambridge, UK) in a 1 : 600 dilution in 1% BSA. […]

T-47D = test: NCI-60 five-dose screen; format: cell-based, human; conditions: Breast cancer
Description: The proligands HL^1–HL^3 and their corresponding metal complexes 1–8 prepared in this study were subjected to evaluation of their anticancer potential, including selectivity towards specific types of cancer: leukemia, non-small cell lung (NSCLC), colon, central nervous system (CNS), melanoma, ovarian, renal, prostate and breast cancers, by the National Cancer Institute's Developmental Therapeutics Program. This evaluation involved the utilization of the NCI 60 human tumor cell line panel.[57]
The NCI-60 SRB assay was performed as described previously.[76] GI50 values (the concentration of the metal complex causing 50% growth inhibition), TGI value (the concentration of the complex causing 0% cell growth), and LC50 (the concentration of the complex causing 50% cell death) were interpolated from dose–response curves that were plots of percentage cell growth versus concentration of test compounds.

For CC(=NN=C([S-])Nc1cc(C)c(O)c(C)c1)c1cccc(CN2CCOCC2)n1.CC(=NN=C([S-])Nc1cc(C)c(O)c(C)c1)c1cccc(CN2CCOCC2)n1.O=[N+]([O-])[O-].[Fe+3] [Complex 4, [Fe^III(L^2)2]NO3], which “effect on microtubule structure and cell morphology” value [1] is on record?
The value was “even greater disruption”.

What about the GI50 (T-47D) of the same compound?
Its GI50 is 1900 nM.
